Results from ChEMBL document CHEMBL3603826, “6-Arylpyrazine-2-carboxamides: A New Core for Trypanosoma brucei Inhibitors” (J Med Chem, 2015).
In brackets after ≈: the same amount, converted by molar mass.

Tests used:
[1] = tested on: Trypanosoma brucei brucei; assay: Anti-parasitic activity against Trypanosoma brucei brucei 427 bloodstream parasites incubated for 48 hrs by alamar blue dye based assay; type: functional, organism-based; settings: Trypanosoma brucei, 427, 48 h
[2] = Selectivity index, ratio of cytotoxic IC50 for HEK293 cells to EC50 for anti-parasitic activity against Trypanosoma brucei brucei 427 bloodstream parasites; type: toxicity, cell-based; settings: human, read-out: Ratio IC50/EC50
[3] = tested on: Trypanosoma brucei rhodesiense; assay: Anti-parasitic activity against Trypanosoma brucei rhodesiense STIB 900 trypomastigotes incubated for 70 hrs by alamar blue dye based assay; type: functional, organism-based; settings: STIB 900, 70 h
Trypanosoma cruzi = assay: Anti-parasitic activity against Trypanosoma cruzi Tulahuen C2C4 trypomastigotes infected rat L6 cells incubated for 96 hrs by CPRG/nonidet substrate based […]; type: functional, organism-based; settings: Tulahuen C2C4, L6, 96 h
Leishmania donovani = assay: Anti-parasitic activity against Leishmania donovani MHOM/ET/67/L82 axenic amastigotes incubated for 70 hrs by alamar blue dye based assay; type: functional, organism-based; settings: MHOM/ET/67/L82, 70 h
Plasmodium falciparum = assay: Anti-parasitic activity against chloroquine and pyrimethamine resistant Plasmodium falciparum K1 erythrocytic stages infected in human erythrocytes incubated for 48 hrs by [3H]-hypoxanthine incorporation assay; type: functional, organism-based
[4] = Toxicity against rat L6 cells incubated for 70 hrs by alamar blue dye based assay; type: cell-based
[5] = Partition coefficient, logD of the compound at pH 7.4 by HPLC method; type: physicochemical; settings: octanol/water
[6] = Kinetic solubility in pH 2.0 0.01M HCl buffer by nephelometry; type: physicochemical; settings: read-out: Kinetic_solubility
[7] = Kinetic solubility in pH 6.5 phosphate buffer by nephelometry; type: physicochemical; settings: read-out: Kinetic_solubility
serum albumin = serum albumin (Homo sapiens, UniProt P02768); assay: Binding affinity to human serum albumin by chromatographic method; type: ADME; settings: read-out: PB (converted)
[8] = Stability assessed as degradation half life; type: physicochemical
[9] = Intrinsic clearance in human liver microsomes assessed per mg protein at pH 7.4 at 0.5 uM in presence of NADPH regenerating system by LC-MS method; type: ADME; settings: read-out: CLH
[10] = Selectivity index, ratio of cytotoxic IC50 for rat L6 cells to EC50 for anti-parasitic activity against Trypanosoma brucei rhodesiense STIB 900; type: toxicity, cell-based; settings: read-out: Ratio IC50/EC50

serum albumin, sequence (P02768 whole entry): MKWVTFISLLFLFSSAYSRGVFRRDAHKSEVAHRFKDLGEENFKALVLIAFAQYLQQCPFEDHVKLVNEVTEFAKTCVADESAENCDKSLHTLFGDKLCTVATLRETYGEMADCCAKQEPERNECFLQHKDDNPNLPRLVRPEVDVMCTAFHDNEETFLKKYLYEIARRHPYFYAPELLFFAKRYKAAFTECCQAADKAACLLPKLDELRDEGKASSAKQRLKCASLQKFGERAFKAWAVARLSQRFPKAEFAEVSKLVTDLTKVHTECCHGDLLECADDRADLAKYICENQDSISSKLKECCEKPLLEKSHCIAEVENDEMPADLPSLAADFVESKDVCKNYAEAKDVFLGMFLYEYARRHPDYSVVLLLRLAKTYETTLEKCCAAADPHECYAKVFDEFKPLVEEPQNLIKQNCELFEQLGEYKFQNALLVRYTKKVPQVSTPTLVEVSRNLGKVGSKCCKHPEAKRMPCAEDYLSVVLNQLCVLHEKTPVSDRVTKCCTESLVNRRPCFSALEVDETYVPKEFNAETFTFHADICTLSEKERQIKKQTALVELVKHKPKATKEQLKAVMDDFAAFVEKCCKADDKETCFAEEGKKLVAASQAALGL

| SMILES | EC50 [1] [nM] | selectivity ratio [2] | other results |
| --- | --- | --- | --- |
| CCC(C)NC(=O)c1nc(-c2ccc(OC)cc2)cnc1N (configuration not stated) | 1300 | > 63.9 | – |
| CCC(C)NC(=O)c1nc(-c2ccccc2F)cnc1N (configuration not stated) | 750 | 111 | – |
| CCC(C)NC(=O)c1nc(-c2ccccc2C#N)cnc1N (configuration not stated) | 350 | > 239 | EC50 [3]: 640 nM; EC50 (Trypanosoma cruzi): 11000 nM; EC50 (Leishmania donovani): > 10000 nM; EC50 (Plasmodium falciparum): 3600 nM; IC50 at 70 h [4]: 18000 nM; logD [5]: 3.6; solubility kinetic [6]: 1.6 µg/mL (≈ 5.42 µM); solubility kinetic [7]: 1.6 µg/mL (≈ 5.42 µM); fraction unbound (serum albumin): 0.05; half-life [8]: 14 min; microsomal CLint at 0.5 µM [9]: 122 µL/min/mg |
| CCC(C)NC(=O)c1nc(-c2ccccc2C)cnc1N (configuration not stated) | 1200 | > 71 | – |
| CCC(C)NC(=O)c1nc(-c2cccc(C(C)=O)c2)cnc1N (configuration not stated) | > 10000 | – | – |
| CCC(CC)NC(=O)c1nc(-c2cc(C)cc(Cl)c2)cnc1N | 770 | 50 | – |
| CCC(C)NC(=O)c1nc(-c2ccc(C#N)cc2)cnc1N (configuration not stated) | 2700 | > 30.4 | – |
| N#Cc1cc(F)ccc1-c1cnc(N)c(C(=O)NC2CCCC2)n1 | 57 | 1470 | – |
| CCC(C)NC(=O)c1nc(-c2ccc(N)cc2)cnc1N (configuration not stated) | 2900 | > 28.4 | – |
| CCC(C)NC(=O)c1nc(-c2cccc(OC)c2)cnc1N (configuration not stated) | 410 | > 201 | – |
| CCC(C)NC(=O)c1nc(-c2cccc([N+](=O)[O-])c2)cnc1N (configuration not stated) | 450 | 185 | – |
| CCC(C)NC(=O)c1nc(-c2ccc(C(C)=O)cc2)cnc1N (configuration not stated) | 4700 | 8.8 | – |
| CCC(C)NC(=O)c1nc(-c2ccc(Cl)cc2)cnc1N (configuration not stated) | 680 | 122 | logD [5]: 4.5; solubility kinetic [6]: 3.1 µg/mL (≈ 10.2 µM); solubility kinetic [7]: 1.6 µg/mL (≈ 5.25 µM); fraction unbound (serum albumin): 0.03; half-life [8]: 36 min; microsomal CLint at 0.5 µM [9]: 48 µL/min/mg |
| CCC(C)NC(=O)c1nc(-c2ccc(C)cc2)cnc1N (configuration not stated) | 3740 | 22 | – |
| CCC(CC)NC(=O)c1nc(-c2ccccc2C#N)cnc1N | 170 | 488 | EC50 [3]: 130 nM; EC50 (Trypanosoma cruzi): 15000 nM; EC50 (Leishmania donovani): > 10000 nM; EC50 (Plasmodium falciparum): 4800 nM; IC50 at 70 h [4]: 10000 nM; selectivity ratio [10]: 80 |
| CCC(C)NC(=O)c1nc(-c2ccccc2N)cnc1N (configuration not stated) | > 10000 | – | – |
| Cc1cc(Cl)cc(-c2cnc(N)c(C(=O)NC3CCCC3)n2)c1 | 500 | 170 | – |

| SMILES | EC50 [1] [nM] | selectivity ratio [2] | other results |
| --- | --- | --- | --- |
| CCC(C)NC(=O)c1nc(-c2cccc(F)c2)cnc1N (configuration not stated) | 820 | 102 | – |
| Cc1cc(-c2cnc(N)c(C(=O)NC3CCCC3)n2)ccc1F | 24 | 3540 | – |
| CCC(CC)NC(=O)c1nc(-c2cccc(C(F)(F)F)c2)cnc1N | 260 | 80 | – |
| CCC(C)NC(=O)c1nc(-c2ccc(Br)cc2)cnc1N (configuration not stated) | 2200 | 38 | – |
| CCC(C)NC(=O)c1nc(-c2cccc(N)c2)cnc1N (configuration not stated) | 1100 | > 77.8 | – |
| CCC(CC)NC(=O)c1nc(-c2ccc(F)c(Cl)c2)cnc1N | 220 | 190 | – |
| CCC(C)NC(=O)c1nc(-c2ccccc2)cnc1N (configuration not stated) | 490 | > 263 | EC50 [3]: 970 nM; EC50 (Trypanosoma cruzi): 19000 nM; EC50 (Leishmania donovani): > 10000 nM; EC50 (Plasmodium falciparum): 11000 nM; IC50 at 70 h [4]: 18000 nM; selectivity ratio [10]: 19 |
| CCC(C)NC(=O)c1nc(-c2ccccc2C(C)=O)cnc1N (configuration not stated) | 10000 | 7.9 | – |
| CCC(C)NC(=O)c1nc(-c2ccccc2Br)cnc1N (configuration not stated) | > 10000 | – | – |
| CCC(C)NC(=O)c1nc(-c2ccccc2OC)cnc1N (configuration not stated) | 5400 | > 15.4 | – |
| CCC(CC)NC(=O)c1nc(-c2cc(C)cc(C)c2)cnc1N | 480 | 173 | – |
| CCC(CC)NC(=O)c1nc(-c2cccc(Cl)c2)cnc1N | 360 | 110 | – |
| CCC(C)NC(=O)c1nc(-c2cccc(C#N)c2)cnc1N (configuration not stated) | 2700 | > 30.5 | – |
| CCC(C)NC(=O)c1nc(-c2ccccc2[N+](=O)[O-])cnc1N (configuration not stated) | 890 | 94 | – |
| CCC(C)NC(=O)c1nc(-c2cccc(C)c2)cnc1N (configuration not stated) | 170 | > 495 | EC50 [3]: 130 nM; EC50 (Trypanosoma cruzi): 25000 nM; EC50 (Leishmania donovani): > 10000 nM; EC50 (Plasmodium falciparum): 19000 nM; IC50 at 70 h [4]: 43000 nM; selectivity ratio [10]: 340 |
| CCC(C)NC(=O)c1nc(-c2ccc([N+](=O)[O-])cc2)cnc1N (configuration not stated) | 4500 | > 18.5 | – |
| CCC(C)NC(=O)c1nc(-c2cccc(Br)c2)cnc1N (configuration not stated) | 570 | 147 | – |

More lines, main results first:

| EC50 [1] [nM] | SMILES | selectivity ratio [2] | other results |
| --- | --- | --- | --- |
| 7300 | Nc1ncc(-c2ccccc2)nc1C(=O)NCCCCO | > 11 | – |
| 71 | Nc1ncc(-c2ccc(F)cc2)nc1C(=O)NC1CCCC1 | 590 | – |
| > 10000 | Nc1ncc(-c2ccccc2)nc1C(=O)NCCO | – | – |
| 3000 | CC(C)(C)NC(=O)c1nc(-c2ccccc2)cnc1N | > 14 | logD [5]: 4.3; solubility kinetic [6]: < 1.6 µg/mL; solubility kinetic [7]: < 1.6 µg/mL; fraction unbound (serum albumin): 0.015; half-life [8]: 7 min; microsomal CLint at 0.5 µM [9]: 246 µL/min/mg |
| > 10000 | Nc1ncc(-c2ccccc2)nc1C(=O)NCCN1CCCC1 | – | – |
| 240 | Nc1ncc(-c2cccc(Cl)c2)nc1C(=O)NC1CCCC1 | 340 | – |
| 4600 | Nc1ncc(-c2ccccc2)nc1C(=O)N1CCCCC1 | > 18 | – |
| 6100 | Nc1ncc(-c2ccccc2)nc1C(=O)N1CCCC1 | > 14 | – |
| 530 | CCCC(C)NC(=O)c1nc(-c2ccccc2)cnc1N (configuration not stated) | > 156 | – |
| > 10000 | Nc1ncc(-c2ccccc2)nc1C(=O)NCCc1ccccc1 | – | – |
| 320 | CCC(CC)NC(=O)c1nc(-c2ccccc2)cnc1N | > 263 | logD [5]: 4.3; solubility kinetic [6]: 6.3 µg/mL (≈ 22.2 µM); solubility kinetic [7]: 3.1 µg/mL (≈ 10.9 µM); fraction unbound (serum albumin): 0.05; half-life [8]: 13 min; microsomal CLint at 0.5 µM [9]: 133 µL/min/mg |
| 2600 | CC(C)NC(=O)c1nc(-c2ccccc2)cnc1N | > 33 | – |
| 1700 | CCCCCNC(=O)c1nc(-c2ccccc2)cnc1N | 50 | – |
| 1100 | CCC(C)NC(=O)c1nc(-c2ccccc2Cl)cnc1N (configuration not stated) | 76 | – |
| > 10000 | Nc1ncc(-c2ccccc2)nc1C(=O)N1CCOCC1 | – | – |
| > 10000 | Nc1ncc(-c2ccccc2)nc1C(=O)NCCN1CCOCC1 | – | – |
| 150 | Nc1ncc(-c2cccc(C(F)(F)F)c2)nc1C(=O)NC1CCCC1 | 560 | – |
| > 10000 | Nc1ncc(-c2ccccc2)nc1C(=O)Nc1ccccc1 | – | – |
| 110 | Nc1ncc(-c2ccc(F)c(Cl)c2)nc1C(=O)NC1CCCC1 | 190 | – |
| > 10000 | CNC(=O)c1nc(-c2ccccc2)cnc1N | – | – |
| 2600 | Nc1ncc(-c2ccccc2)nc1C(=O)NCc1ccccc1 | 32 | – |
